According to article PMC8476002, “Bergamottin a CYP3A inhibitor found in grapefruit juice inhibits prostate cancer cell growth by downregulating androgen receptor signaling and promoting G0/G1 cell cycle block and apoptosis” (PLoS ONE, 2021):

Legend:
Assay type in all cases: cell-based, human
[1] = tested on: cell cycle regulating proteins in LNCaP cells; experiment: Western blot of cell cycle regulating proteins, LNCaP; settings: for CDK2, normalized fold change after GAPDH calibration / CDK4, normalized fold change after GAPDH calibration / CDK6, normalized fold change after GAPDH calibration / Cyclin A, normalized fold change after GAPDH calibration / Cyclin B1, normalized fold change after GAPDH calibration / Cyclin D1, normalized fold change after GAPDH calibration / Cyclin D3, normalized fold change after GAPDH calibration / Cyclin E, normalized fold change after GAPDH calibration / Myt 1, normalized fold change after GAPDH calibration / P-Wee1, normalized fold change after GAPDH calibration / P-cdc2, normalized fold change after GAPDH calibration / P-histone H3, normalized fold change after GAPDH calibration / p21, normalized fold change after GAPDH calibration / p27, normalized fold change after GAPDH calibration: LNCAP, 48 hrs., 0 μM = 100
Method: Cells were plated at 25–30% confluence when maintained in complete media. When the cells required DHT tretment and media replacement to charcoal stripped serum media (CSSM) they were plated at 35–40% confluence. Bergamottin is dissolved in DMSO (vehicle control) and the amount of DMSO at each treatment group was kept constant. After the completion of the treatment cells were washed in phosphate buffer (PBS) containing 2mMEDTA and 2mM EGTA and lysed in RIPA buffer (50 mM TRIS, 150 mM NaCl, 1% NP40, 0.5% sodium deoxycholate, 0.1% SDS, 2mM EDTA, 2mM EGTA) supplemented with protease and phosphatase inhibitors for total protein isolation. Protein estimation was performed using micro BCA assay and equal protein amponts were loaded on SDS-PAGE gels for western analysis. GAPDH was used as an internal control for total protein. Infrared fluorescent-labeled secondary antibodies were used for detection using Odyssey CLx. The bands were quantified using Odyssey software, which calculates pixel density and automatically takes an area adjacent to each band for background corrections. […]

[2] = tested on: total AR in MDAPCa2b cells; experiment: Western blotting of total AR, MDAPCa2b; settings: bergamottin 10μM, CSSM
Method: (§1) Cells were plated at 25–30% confluence when maintained in complete media. When the cells required DHT tretment and media replacement to charcoal stripped serum media (CSSM) they were plated at 35–40% confluence. Bergamottin is dissolved in DMSO (vehicle control) and the amount of DMSO at each treatment group was kept constant. After the completion of the treatment cells were washed in phosphate buffer (PBS) containing 2mMEDTA and 2mM EGTA and lysed in RIPA buffer (50 mM TRIS, 150 mM NaCl, 1% NP40, 0.5% sodium deoxycholate, 0.1% SDS, 2mM EDTA, 2mM EGTA) supplemented with protease and phosphatase inhibitors for total protein isolation. Protein estimation was performed using micro BCA assay and equal protein amponts were loaded on SDS-PAGE gels for western analysis. GAPDH was used as an internal control for total protein. Infrared fluorescent-labeled secondary antibodies were used for detection using Odyssey CLx. The bands were quantified using Odyssey software, which calculates pixel density and automatically takes an area adjacent to each band for background corrections.

[3] = tested on: AR nuclear localization in MDAPCa2b cells; experiment: Confocal microscopy of AR nuclear localization, MDAPCa2b; settings: bergamottin 10μM, versus DMSO
Method: Cells were seeded into 35 mm Glass bottom dish (Cellvis catalog# D35C4-20-1.5-N) in complete media; media was changed to CSSM prior to DHT treatment. The cells were fixed in 4% paraformaldehyde for 20 minutes and permeabilized using permeabilizing buffer (0.2% Tween 20 in PBS) for 5 minutes. Cells were blocked using 10% goat serum diluted in permeabilizing buffer with 1% BSA for 15 minutes. Primary antibodies were diluted at 1:100 in staining buffer (1% BSA in PBS) and incubated for 2 hours at room temperature. Cells were washed three times (5 minutes each) in PBS. Secondary antibodies, TRITC-conjugated Donkey Anti-rabbit (711-025-152) was from Jackson immuno research, West Grove, PA was diluted at 1:100 in staining buffer and incubated for 60 minutes at room temperature. Cells were washed three times (5 minutes) in PBS and stained with 1 μg/mL DAPI (4’, 6-diamidino-2-phenylindole) in PBS for 5 minutes at room temperature. The cells were stored in PBS at 4°C until imaging was completed.
Cells were imaged using confocal laser scanning microscopy on a Nikon A1R using a galvano scanner and a 60× Apo-TIRF oil immersion objective. NIS Elements software form Nikon was used for recording the data.

[4] = tested on: PARP cleavage in LNCaP cells; experiment: Western blot of PARP cleavage, LNCaP; settings: 5 and 10 μM for 96 hrs. and 20 μM for 48 hrs.
Method: as §1
Cells were plated in complete media without antibiotics on poly D-lysine-coated plates (80,000 cells per 6 well). […]

[5] = LNCaP, low dose 5 and 10 μM, 96 hrs.

Q: Which results are given for CC(C)=CCC/C(C)=C/COc1c2ccoc2cc2oc(=O)ccc12 [bergamottin]?
A: CDK2, normalized fold change after GAPDH calibration ([1]; Bergamottin 20 μM): 62; CDK4, normalized fold change after GAPDH calibration ([1]; Bergamottin 20 μM): 46; CDK6, normalized fold change after GAPDH calibration ([1]; Bergamottin 20 μM): 60; Cyclin A, normalized fold change after GAPDH calibration ([1]; Bergamottin 20 μM): 80; Cyclin B1, normalized fold change after GAPDH calibration ([1]; Bergamottin 20 μM): 50; Cyclin D1, normalized fold change after GAPDH calibration ([1]; Bergamottin 20 μM): 43; Cyclin D3, normalized fold change after GAPDH calibration ([1]; Bergamottin 20 μM): 68; Cyclin E, normalized fold change after GAPDH calibration ([1]; Bergamottin 20 μM): 109; Myt 1, normalized fold change after GAPDH calibration ([1]; Bergamottin 20 μM): 103; P-Wee1, normalized fold change after GAPDH calibration ([1]; Bergamottin 20 μM): 63; P-cdc2, normalized fold change after GAPDH calibration ([1]; Bergamottin 20 μM): 18; P-histone H3, normalized fold change after GAPDH calibration ([1]; Bergamottin 20 μM): 294; p21, normalized fold change after GAPDH calibration ([1]; Bergamottin 20 μM): 83; p27, normalized fold change after GAPDH calibration ([1]; Bergamottin 20 μM): 112; CDK2, normalized fold change after GAPDH calibration ([1]; Bergamottin 30 μM): 67; CDK4, normalized fold change after GAPDH calibration ([1]; Bergamottin 30 μM): 30; CDK6, normalized fold change after GAPDH calibration ([1]; Bergamottin 30 μM): 12; Cyclin A, normalized fold change after GAPDH calibration ([1]; Bergamottin 30 μM): 55; Cyclin B1, normalized fold change after GAPDH calibration ([1]; Bergamottin 30 μM): 44; Cyclin D1, normalized fold change after GAPDH calibration ([1]; Bergamottin 30 μM): 12; Cyclin D3, normalized fold change after GAPDH calibration ([1]; Bergamottin 30 μM): 44; Cyclin E, normalized fold change after GAPDH calibration ([1]; Bergamottin 30 μM): 53; Myt 1, normalized fold change after GAPDH calibration ([1]; Bergamottin 30 μM): 82; P-Wee1, normalized fold change after GAPDH calibration ([1]; Bergamottin 30 μM): 37; P-cdc2, normalized fold change after GAPDH calibration ([1]; Bergamottin 30 μM): 5; P-histone H3, normalized fold change after GAPDH calibration ([1]; Bergamottin 30 μM): 35; p21, normalized fold change after GAPDH calibration ([1]; Bergamottin 30 μM): 102; p27, normalized fold change after GAPDH calibration ([1]; Bergamottin 30 μM): 183; CDK4 level (western blot) [1, 5]: did not observe any significant change; CDK6 level (western blot) [1, 5]: did not observe any significant change; cdc-2 phosphorylation (western blot) [1, 5]: Decreased cdc-2 phosphorylation; cyclin B1 level (western blot) [1, 5]: lower; cyclin D1 level (western blot) [1, 5]: lower; cyclin D3 level (western blot) [1, 5]: lower; downregulation of total AR levels [2]: 50%; active AR migration to the nucleus with DHT induction (confocal) [3]: significantly reduced; PARP cleavage [4]: showed apoptosis (cleaved PARP)
